Measured values published in patent publication US11319316B2, “Compounds that induce degradation of anti-apoptotic Bcl-2 family proteins and the uses thereof” (BioVentures, LLC, priority 2016, dated 2022).
Read-outs that look alike come from different tables or passages of the source.

What was measured:
Format in all cases: cell-based
Bcl-xL [1] = target: T1, Bcl-xL (Homo sapiens, UniProt Q07817); test: Protein degradation assay (Western blot) in IR-SC WI38 cells; details: for Bcl-xL depletion in IR-SC WI38 cells: 1 μM (FIG. 4A)
T1 construct: endogenous in cells; host or cells: WI38 cells (normal NC-WI38 and ionizing-radiation-induced senescent IR-SC WI38)
Description: IR-SC WI38 cells were incubated with vehicle or increasing concentrations of XZ-14439 for 18 hours at increasing […] (FIG. 3A) and at a fixed concentration of XZ-14439 for increasing times (FIG. […]). The cells were digested with 0.25% trypsin and 1 mM EDTA, and harvested in RIPA lysis buffer with 1% Phosphatase Inhibitor Cocktail 3 and 1% Protease Inhibitor Cocktail. An equal amount of protein (15-30 μg/lane) from each cell extract was resolved on a 12% SDS-PAGE gel. Proteins were blotted onto a NOVEX PVDF membrane by electrophoresis. The membranes were blocked with TBS-T blocking buffer (5% nonfat milk in 25 mM Tris-HCL, pH 7.4; 3 mM KCl; […] NaCl; and 0.05% Tween) and probed with primary antibodies (at a predetermined optimal concentration) overnight at 4° C. or for 1 hour at room temperature. After extensive washing with TBS-T, the membranes were incubated with an appropriate peroxidase-conjugated secondary antibody for 1 hour at room temperature. After three washes with TBS-T, the proteins of interest were detected with ECL Western Blotting Detection Reagents and recorded with autoradiography (Pierce Biotech, Rockford, Ill., USA). The primary antibody Bcl-x (#2762), Bcl-2 antibody (#2872S) and β-actin (13E5, #4970) were purchased from Cell Signaling.
(§1) IR-SC WI38 (FIG. 4A) and RS4; 11 (FIG. 4B) cells were incubated with vehicle or increasing concentrations of compounds of Formula (I) or Formula (II) for 6 or 16 hours, at 1 μM (FIG. 4A) and 100 nm (FIG. 4B), respectively. The cells were harvested in RIPA lysis buffer with 1% Phosphatase Inhibitor Cocktail 3 and 1% Protease Inhibitor Cocktail. An equal amount of protein (15-30 μg/lane) from each cell extract was resolved on a 12% SDS-PAGE gel. Proteins were blotted onto a NOVEX PVDF membrane by electrophoresis. The membranes were blocked with TBS-T blocking buffer (5% nonfat milk in 25 mM Tris-HCL, pH 7.4; 3 mM KCl; 140 mM NaCl; and 0.05% Tween) and probed with primary antibodies (at a predetermined optimal concentration) overnight at 4° C. or for 1 hour at room temperature. After extensive washing with TBS-T, the membranes were incubated with an appropriate peroxidase-conjugated secondary antibody (Jackson ImmunoResearch Europe, Suffolk, UK) for 1 hour at room temperature. After three washes with TBS-T, the proteins of interest were detected with ECL Western Blotting Detection Reagents and recorded with autoradiography. The primary antibody Bcl-xl (#2762), Bcl-2 antibody (#2872S), Bcl-w (#2724S), Mcl-1 (#5453s) and β-actin (13E5, #4970) were purchased from Cell Signaling.

RS4; 11 cancer cells = test: Cancer cell viability by MTS, 72 h, RS4;11; details: RS4;11 cells
Description: (§2) RS4; 11 and NCI-H146 cancer cells were incubated with vehicle or increasing concentrations of compounds of Formula (I) and Formula (II). At 72 hours post-treatment cell viability was measured by MTS and EC50 was calculated as a percentage of control cells treated with vehicle. Table 1 depicts the EC50 values of compounds of Formula (I) and Formula (II) against RS4; 11 and NCI-H146.

Normal WI38 (NSC) = test: Viability of normal WI38 cells (NSC), 72 h, PI staining and flow cytometry
Description: (§3) Normal WI38 (NSC) and IR-induced senescent WI38 cells (IR-SC) were incubated with vehicle or increasing concentrations of compounds of Formula (I) or Formula (II) for 72 hours. The cells were digested with 0.25% trypsin and 1 mM EDTA, and harvested in PBS containing 2% FBS. After incubation with propidium iodide (PI, 100 ng/ml) in PBS at room temperature for 1 minute, cells were centrifuged at 1,200 rpm for 6 minutes to remove PI and then resuspended in PBS containing 2% FBS for analysis using a flow cytometer. Viable cells (PI-cells) were analyzed by flow cytometry at a constant flow rate to count the number of cells and calculated as a percentage of control cells treated with vehicle. Table 1 depicts the EC50 values of the compounds of Formula (I) and compounds of Formula (II) against normal WI38 and IR-induced senescent WI38.

[2] = system: IR-induced senescent WI38 cells (IR-SC); test: Viability of IR-induced senescent WI38 cells (IR-SC), 72 h, PI staining and flow cytometry; details: for EC50: IR-induced senescent WI38 cells, 72 hours, viable (PI-) cells as percentage of vehicle control; for Ratio NSC/SC: ratio of WI38 EC50 in NSC to EC50 in IR-SC
Description: as §3

Bcl-xL [3] = target: T1, Bcl-xL; test: Protein degradation assay (Western blot) in RS4;11 cells; parameters: dose or concentration left out as unconfirmed
Description: as §1, with “IR-SC WI38 (FIG. 4A) and RS4; 11 (FIG. 4B) cells were incubated with vehicle or increasing concentrations of compounds of Formula (I) or Formula (II) for 6 or 16 hours, at 1 μM (FIG. 4A) and 100 nm (FIG. 4B), respectively.” left out

NCI-H146 cancer cells = test: Cancer cell viability by MTS, 72 h, NCI-H146
Description: as §2

[4] = viable (PI-) cells as percentage of vehicle control
[5] = Homo sapiens, WI-38, viable (PI-) cells as percentage of vehicle control

T1 sequence (Q07817 whole entry): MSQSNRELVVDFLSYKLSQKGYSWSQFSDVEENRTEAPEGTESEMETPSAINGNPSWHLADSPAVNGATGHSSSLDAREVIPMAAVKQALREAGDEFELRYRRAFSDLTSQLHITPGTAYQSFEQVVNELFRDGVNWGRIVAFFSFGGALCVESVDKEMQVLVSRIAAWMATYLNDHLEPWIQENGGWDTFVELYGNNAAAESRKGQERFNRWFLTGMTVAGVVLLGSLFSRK

With CC1(C)CCC(c2ccc(Cl)cc2)=C(CN2CCN(c3ccc(C(=O)NS(=O)(=O)c4ccc(N[C@H](CCN5CCN(CCOCCOCCOCCNc6cccc7c6C(=O)N(C6CCC(=O)NC6=O)C7=O)CC5)CSc5ccccc5)c(S(=O)(=O)C(F)(F)F)c4)cc3)CC2)C1 (stereo partly drawn) [XZ-15418, 4-(4-((4′-chloro-4,4-dimethyl-3,4,5,6-tetrahydro-[1,1′-biphenyl]-2-yl)methy)piperazin-1-yl)-N-((4-(((2R)-4-(4-(2-(2-(2-(2-((2-(2,6-dioxopiperidin-3-yl)-1,3-dioxoisoindolin-4-yl)amino)ethoxy)ethoxy)ethoxy)ethyl)piperazin-1-yl)-1-(phenylthio)butan-2-yl)amino)-3-((trifluoromethyl)sulfonyl)phenyl)sulfonyl)benzamide] the “Bcl-xL depletion in IR-SC WI38 cells” value (Bcl-xL [1]) was “deplete Bcl-xL”, the EC50 (RS4; 11 cancer cells) was 12.3 nM and the EC50 (Normal WI38 (NSC); [4]) was greater than 10000 nM. The EC50 [2] was 172 nM, the “Ratio NSC/SC” value [2] was greater than 58.06 and the “Bcl-xL depletion in RS4; 11 cells” value (Bcl-xL [3]) was “deplete Bcl-xL”.
For CC1(C)CCC(c2ccc(Cl)cc2)=C(CN2CCN(c3ccc(C(=O)NS(=O)(=O)c4ccc(N[C@H](CCN5CCN(CCOCCOCCNc6cccc7c6C(=O)N(C6CCC(=O)NC6=O)C7=O)CC5)CSc5ccccc5)c(S(=O)(=O)C(F)(F)F)c4)cc3)CC2)C1 (stereo partly drawn) [XZ-15405, 4-(4-((4′-chloro-4,4-dimethyl-3,4,5,6-tetrahydro-[1,1′-biphenyl]-2-yl)methyl)piperazin-1-yl)-N-((4-(((2R)-4-(4-(2-(2-(2-((2-(2,6-dioxopiperidin-3-yl)-1,3-dioxoisoindolin-4-yl)amino)ethoxy)ethoxy)ethyl)piperazin-1-yl)-1-(phenylthio)butan-2-yl)amino)-3-((trifluoromethyl)sulfonyl)phenyl)sulfonyl)benzamide], the “Bcl-xL depletion in IR-SC WI38 cells” value (Bcl-xL [1]) was “deplete Bcl-xL”, the EC50 (RS4; 11 cancer cells; Homo sapiens) was 24.8 nM and the EC50 (Normal WI38 (NSC); [5]) was greater than 10000 nM. For the same compound, the EC50 ([2]; Homo sapiens, WI-38) was 152 nM, the “Ratio NSC/SC” value [2] was greater than 65.97 and the “Bcl-xL depletion in RS4; 11 cells” value (Bcl-xL [3]) was “deplete Bcl-xL”.
With CC1(C)CCC(c2ccc(Cl)cc2)=C(CN2CCN(c3ccc(C(=O)NS(=O)(=O)c4ccc(N[C@H](CCN5CCN(C(=O)CCCn6cc(COCCOCCNc7cccc8c7C(=O)N(C7CCC(=O)NC7=O)C8=O)nn6)CC5)CSc5ccccc5)c(S(=O)(=O)C(F)(F)F)c4)cc3)CC2)C1 (some centres unmarked) [PZ-15227] the EC50 (NCI-H146 cancer cells) was 68.9 nM, the “Bcl-xL depletion in IR-SC WI38 cells” value (Bcl-xL [1]) was “deplete Bcl-xL” and the EC50 (RS4; 11 cancer cells) was 114 nM. For the same compound, the EC50 (Normal WI38 (NSC); [4]) was greater than 10000 nM, the EC50 [2] was 108 nM and the “Ratio NSC/SC” value [2] was greater than 92. For the same compound, the “Bcl-xL depletion in RS4; 11 cells” value (Bcl-xL [3]) was “deplete Bcl-xL”.
Cc1ncsc1-c1ccc(CNC(=O)[C@@H]2C[C@@H](O)CN2C(=O)[C@@H](NC(=O)COCCOCCOCc2cn(CCCC(=O)N3CCN(CC#Cc4ccc(OCCCc5sc(N6CCc7cccc(C(=O)Nc8nc9ccccc9s8)c7C6)nc5C(=O)O)c(F)c4)CC3)nn2)C(C)(C)C)cc1 [XZ-14455, 2-(8-(benzo[d]thiazol-2-ylcarbamoyl)-3,4-dihydroisoquinolin-2(1H)-yl)-5-(3-(2-fluoro-4-(3-(4-(4-(4-((S)-12-((2S,4R)-4-hydroxy-2-((4-(4-methylthiazol-5-yl)benzyl)carbamoyl)pyrrolidine-1-carbonyl)-13,13-dimethyl-10-oxo-2,5,8-trioxa-11-azatetradecyl)-1H-1,2,3-triazol-1-yl)butanoyl)piperazin-1-yl)-prop-1-yn-1-yl)phenoxy)propyl)thiazole-4-carboxylic acid] gave an EC50 (NCI-H146 cancer cells; Homo sapiens) greater than 2000 nM, an EC50 (RS4; 11 cancer cells; Homo sapiens) greater than 2000 nM and an EC50 (Normal WI38 (NSC); [5]) of 5000 nM. The EC50 ([2]; Homo sapiens, WI-38) was 1470 nM and the “Ratio NSC/SC” value [2] was 3.40.
CC1(C)CCC(c2ccc(Cl)cc2)=C(CN2CCN(c3ccc(C(=O)NS(=O)(=O)c4ccc(N[C@H](CCN5CCN(C(=O)COCCOCCOCCNc6cccc7c6C(=O)N(C6CCC(=O)NC6=O)C7=O)CC5)CSc5ccccc5)c(S(=O)(=O)C(F)(F)F)c4)cc3)CC2)C1 (some centres unmarked) [XZ-14510] gave an EC50 (NCI-H146 cancer cells; Homo sapiens) of 112 nM, an EC50 (RS4; 11 cancer cells; Homo sapiens) of 220 nM and an EC50 (Normal WI38 (NSC); [5]) greater than 10000 nM. For the same compound, the EC50 ([2]; Homo sapiens, WI-38) was 177 nM and the “Ratio NSC/SC” value [2] was greater than 56.
CC1(C)CCC(c2ccc(Cl)cc2)=C(CN2CCN(c3ccc(C(=O)NS(=O)(=O)c4ccc(N[C@H](CCN5CCN(C(=O)CCCn6cc(COCCOCCOCCNc7cccc8c7C(=O)N(C7CCC(=O)NC7=O)C8=O)nn6)CC5)CSc5ccccc5)c(S(=O)(=O)C(F)(F)F)c4)cc3)CC2)C1 (stereo partly drawn) [XZ-14439, 4-(4-((4′-chloro-4,4-dimethyl-3,4,5,6-tetrahydro-[1,1′-biphenyl]-2-yl)methyl)piperazin-1-yl)-N-((4-(((2R)-4-(4-(4-(4-((2-(2-(2-((2-(2,6-dioxopiperidin-1,3-yl)-1,3-dioxoisoindolin-4-yl)amino)ethoxy)ethoxy)ethoxy)methyl)-1H-1,2,3-triazol-1-yl)butanoyl)piperazin-1-yl)-1-(phenylthio)butan-2-yl)amino)-3-((trifluoromethyl)sulfonyl)phenyl)sulfonyl)benzamide] was tested, and the EC50 (NCI-H146 cancer cells; Homo sapiens) was 69.5 nM, the “Bcl-xL depletion in IR-SC WI38 cells, dose and time dependence” value (Bcl-xL [1]; increasing concentrations for 18 hours (FIG. 3A), fixed concentration for increasing times (FIG. 3B)) was “depletes Bcl-xL in IR-SC WI38 cells in both a dose dependent (FIG. 3A) and time dependent (FIG. 3B) manner” and the EC50 (RS4; 11 cancer cells; Homo sapiens) was 84.4 nM. The EC50 (Normal WI38 (NSC); [5]) was greater than 20000 nM, the EC50 ([2]; Homo sapiens, WI-38) was 870 nM and the “Ratio NSC/SC” value [2] was greater than 20.88.
For CC1(C)CCC(c2ccc(Cl)cc2)=C(CN2CCN(c3ccc(C(=O)NS(=O)(=O)c4ccc(N[C@H](CCN5CCN(C(=O)Cn6cc(COCCOCCNc7cccc8c7C(=O)N(C7CCC(=O)NC7=O)C8=O)nn6)CC5)CSc5ccccc5)c(S(=O)(=O)C(F)(F)F)c4)cc3)CC2)C1 (some centres unmarked) [XZ-15421], the “Bcl-xL depletion in IR-SC WI38 cells” value (Bcl-xL [1]) was “deplete Bcl-xL”, the EC50 (RS4; 11 cancer cells; Homo sapiens) was 72.9 nM and the EC50 (Normal WI38 (NSC); [5]) was greater than 10000 nM. The EC50 ([2]; Homo sapiens, WI-38) was less than 156 nM, the “Ratio NSC/SC” value [2] was greater than 64.02 and the “Bcl-xL depletion in RS4; 11 cells” value (Bcl-xL [3]) was “deplete Bcl-xL”.
